“And” between values parts separate entries of the source, which are not always exact repeats. Equal entries are not always repeated. Strand notation (5' to 3'): a small letter for the sugar, then the base; units joined by * are phosphorothioate-linked, units joined directly phosphodiester-linked; [ ] holds rarer units or linkages, { } end groups; capitals alone tell only the bases. e = 2'-O-(2-methoxyethyl) (MOE); k = constrained ethyl (cEt); [5mC] = 5-methylcytosine; d = 2'-deoxy (DNA); m = 2'-O-methyl
Assays:
[1] = tested on: Yap1 mRNA; experiment: Dose-dependent inhibition of human Yap1 in SNU-449 cells (Example 9, RTS36584); type: cell-based; conditions: free uptake; for % UTC (Yap1 mRNA): approximately 48 hours; for IC50: linear regression on a log/linear plot
Method in brief: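 Read-out was Yap1 mRNA (primer-probe RTS36584) normalised to total RNA by RIBOGREEN, given as % of untreated cells, with IC50 fitted by linear regression of log/linear data. Oligonucleotides were dosed by free uptake to SNU-449 cells, 10,000/well, for ~48 h.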

[2] = tested on: Yap1 mRNA; experiment: Inhibition of human Yap1 mRNA in SNU449 hepatocellular carcinoma xenograft tumors (Example 26); type: in vivo; conditions: SNU449 xenografts in NSG mice, 50 mg/kg twice weekly for five days, relative to PBS treated animals
Description: A SNU449 hepatocellular carcinoma xenograft tumor model was used to evaluate activity of modified oligonucleotides targeted to human Yap1. Ten million SNU449 cells in 30% matrigel were implanted subcutaneously into the flanks of female NOD Cg-Prkdcscid ll2rgtm1Wjl/SzJ (NSG) mice (from Jackson Laboratory) at 4-6 weeks of age. When tumors reached an average volume of 100 mm^3, approximately two weeks post-implantation, groups of four mice each were administered at 50 mg/kg twice weekly with modified oligonucleotides for five days. Tumors were collected and tested for Yap1 mRNA knockdown by RT-qPCR. Yap1 mRNA levels were measured as previously described using the Human Yap1 primer-probe set RTS4814. Yap1 mRNA levels were normalized to actin-beta content, as measured by primer probe set RTS5002. Results are presented in the tables below as percent control of the amount of Yap1 mRNA relative to PBS treated animals (% control).

[3] = Tolerability in CD-1 mice, plasma chemistry markers (Example 15); type: in vivo; conditions: male CD-1 mice, 50 mg/kg s.c. twice a week for four weeks (8 treatments), day 26
Description: CD-1 mice were treated with modified oligonucleotides selected from studies described above and evaluated for changes in the levels of various plasma chemistry markers.
(§1) Groups of four male CD-1 mice at 4-5 weeks of age (obtained from Charles River) were injected subcutaneously twice a week for four weeks (for a total of 8 treatments) with 50 mg/kg of modified oligonucleotides. One group of male CD-1 mice was injected with PBS. Mice were euthanized on day 26 post start of treatment (24 hrs following the final administration).

[4] = tested on: Yap1 mRNA; experiment: Dose-dependent inhibition of human Yap1 in A-431 cells (Example 6, 5,000 cells per well, RTS4814); type: cell-based; conditions: A-431 cells; for IC50: Yap1 mRNA, linear regression on a log/linear plot; for % UTC 148 nM / % UTC 444 nM / % UTC 1333 nM / % UTC 4000 nM: free uptake, approximately 48 hours, RTS4814
Method in brief: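 A-431 cells (5,000/well) took up oligonucleotides by free uptake at various doses for about 48 h. Yap1 mRNA was measured by RT-PCR (RTS4814), normalised to RIBOGREEN total RNA and expressed as % untreated control; IC50 by linear regression on a log/linear plot.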

[5] = Tolerability in Balb/c mice, plasma chemistry markers (Example 11); type: in vivo; conditions: 50 mg/kg subcutaneously twice a week for four weeks
Description: Balb/c mice were treated with modified oligonucleotides selected from studies described above and evaluated for changes in the levels of various plasma chemistry markers.
as §1, with “of” for “of four”, “Balb/c” for “CD-1”, “4-6” for “4-5”, “Taconic)” for “Charles River)”, “hours” for “hrs”

[6] = tested on: Yap1 mRNA; experiment: Dose-dependent inhibition of human Yap1 in A-431 cells (Example 7, 10,000 cells per well, RTS36584); type: cell-based; conditions: free uptake
Method in brief: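 Yap1 mRNA was expressed as percent of untreated control after normalization to total RNA (RIBOGREEN), and IC50 was derived by log/linear linear regression. The read-out used primer-probe set RTS36584 roughly 48 hours after free-uptake dosing of oligonucleotides into A-431 cells (10,000 cells/well).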

[7] = Tolerability in CD-1 mice, body and organ weights (Example 15); type: in vivo; conditions: male CD-1 mice, 50 mg/kg s.c. twice a week for four weeks (8 treatments), end of study (day 26)
Description: as §1
(§2) Body weights of CD-1 mice were measured at the end of the study, and the average body weight for each group is presented in the table below. Modified oligonucleotides that caused any changes in organ weights outside the expected range for modified oligonucleotides were excluded from further studies.

[8] = Tolerability in Balb/c mice, body and organ weights (Example 11); type: in vivo; conditions: 50 mg/kg subcutaneously twice a week for four weeks, end of study
Description: as §1, with “of” for “of four”, “Balb/c” for “CD-1”, “4-6” for “4-5”, “Taconic)” for “Charles River)”, “hours” for “hrs”
as §2, with “Balb/c” for “CD-1”

[9] = 15.6 nM, A-431 cells, 10,000 cells per well, approximately 48 hours
[10] = 62.5 nM, A-431 cells, 10,000 cells per well, approximately 48 hours
[11] = 4000.00 nM, A-431 cells, 10,000 cells per well, approximately 48 hours

## 1198673 (kG*kA*dT*dT*dT*dA*dG*dG*dA*dT*dG*d[5mC]*kA*eT*kG*eG; antisense) [compound 1198673]
[1]; 31.3 nM
  % UTC (Yap1 mRNA): 51 % UTC
[1]; 125.0 nM
  % UTC (Yap1 mRNA): 26 % UTC
[1]; 500.0 nM
  % UTC (Yap1 mRNA): 8 % UTC
[1]; 2000.00 nM
  % UTC (Yap1 mRNA): 3 % UTC
[1]
  IC50: < 0.03 µM
[2]
  Yap1 mRNA in tumors, % control: 52 % control

## 1197269 (kT*kA*kA*dA*mG*dT*dG*dT*dA*dT*dG*dT*d[5mC]*kA*kG*kA; antisense) [compound 1197269]
[1]; 31.3 nM
  % UTC (Yap1 mRNA): 48 % UTC
[1]; 125.0 nM
  % UTC (Yap1 mRNA): 21 % UTC
[1]; 500.0 nM
  % UTC (Yap1 mRNA): 7 % UTC
[1]; 2000.00 nM
  % UTC (Yap1 mRNA): 1 % UTC
[1]
  IC50: < 0.03 µM
[2]
  Yap1 mRNA in tumors, % control: 57 % control

## 1198641 (kA*kT*dT*dA*dG*dA*dG*dT*dA*dT*dG*dT*kG*eG*k[5mC]*eA; antisense) [compound 1198641]
[1]; 31.3 nM
  % UTC (Yap1 mRNA): 55 % UTC
[1]; 125.0 nM
  % UTC (Yap1 mRNA): 29 % UTC
[1]; 500.0 nM
  % UTC (Yap1 mRNA): 11 % UTC
[1]; 2000.00 nM
  % UTC (Yap1 mRNA): 3 % UTC
[1]
  IC50: 0.03 µM
[2]
  Yap1 mRNA in tumors, % control: 68 % control

## 1074461 (kG*kA*kA*dA*dT*dT*dG*dT*d[5mC]*dT*d[5mC]*dA*dT*kG*k[5mC]*k[5mC]) [compound 1074461]
[3]
  ALB: 2.2 g/dL
  ALT: 1563 U/L
  AST: 865 U/L
[1]; 31.3 nM
  % UTC (Yap1 mRNA): 76 % UTC
[1]; 125.0 nM
  % UTC (Yap1 mRNA): 37 % UTC
[1]; 500.0 nM
  % UTC (Yap1 mRNA): 15 % UTC
[1]; 2000.00 nM
  % UTC (Yap1 mRNA): 5 % UTC
[1]
  IC50: 0.1 µM

## 1198501 (kG*kA*dT*dT*dT*dA*dG*dG*dA*dT*dG*e[5mC]*kA*eT*kG*eG; antisense) [compound 1198501]
[1]; 31.3 nM
  % UTC (Yap1 mRNA): 65 % UTC
[1]; 125.0 nM
  % UTC (Yap1 mRNA): 36 % UTC
[1]; 500.0 nM
  % UTC (Yap1 mRNA): 17 % UTC
[1]; 2000.00 nM
  % UTC (Yap1 mRNA): 11 % UTC
[1]
  IC50: 0.1 µM
[2]
  Yap1 mRNA in tumors, % control: 54 % control

## 716454 (antisense k[5mC]*kG*kA*dG*dA*dT*dT*dT*dA*dA*dA*dT*dA*kA*kG*kG) [compound 716454]
[4]; Table 54
  IC50: 2.6 µM
  % UTC 148 nM: 91 % UTC
  % UTC 444 nM: 71 % UTC
  % UTC 1333 nM: 54 % UTC
  % UTC 4000 nM: 48 % UTC
[5]
  ALT: 39 U/L
  AST: 60 U/L
  BUN: 14 mg/dL
  TBIL: 0.18 mg/dL
[3]
  ALB: 2.3 g/dL
  ALT: 44 U/L
  AST: 56 U/L
[6]; [9]
  Yap1 mRNA, % UTC: 84 % UTC
[6]; [10]
  Yap1 mRNA, % UTC: 39 % UTC
[6]; [11]
  Yap1 mRNA, % UTC: 6 % UTC
[6]; A-431 cells, approximately 48 hours, linear regression on log/linear plot
  IC50: 0.1 µM
[7]
  Kidney weight: 0.55 g
  Liver weight: 2.31 g
  Spleen weight: 0.20 g
  body weight: 38 g
[8]
  Kidney weight: 0.42 g
  Liver weight: 1.48 g
  Spleen weight: 0.14 g
  body weight: 25 g

## 715483 (k[5mC]*kT*k[5mC]*dT*dT*dT*dG*dG*dA*dA*dA*d[5mC]*d[5mC]*kA*kT*kT) [compound 715483]
[4]; Table 53
  IC50: 1.1 µM
  % UTC 148 nM: 82 % UTC
  % UTC 444 nM: 58 % UTC
  % UTC 1333 nM: 43 % UTC
  % UTC 4000 nM: 35 % UTC
[5]
  ALT: 62 U/L
  AST: 70 U/L
  BUN: 16 mg/dL
  TBIL: 0.17 mg/dL
[3]
  ALB: 2.2 g/dL
  ALT: 79 U/L
  AST: 125 U/L
[6]; [9]
  Yap1 mRNA, % UTC: 88 % UTC and 87 % UTC and 77 % UTC
[6]; [10]
  Yap1 mRNA, % UTC: 40 % UTC and 45 % UTC and 36 % UTC
[6]; [11]
  Yap1 mRNA, % UTC: 4 % UTC and 3 % UTC
[6]; Table 56, 15.6 nM, A-431 cells 10,000 cells per well, 48 hours
  Yap1 mRNA, % UTC: 78 % UTC
[6]; Table 56, 62.5 nM, A-431 cells 10,000 cells per well, 48 hours
  Yap1 mRNA, % UTC: 38 % UTC
[6]; Table 56, 4000.00 nM, A-431 cells 10,000 cells per well, 48 hours
  Yap1 mRNA, % UTC: 6 % UTC
[6]; Table 56, A-431 cells 10,000 cells per well
  IC50: 0.05 µM
[6]; Table 57, 15.6 nM, A-431 cells 10,000 cells per well, 48 hours
  Yap1 mRNA, % UTC: 79 % UTC
[6]; Table 57, 62.5 nM, A-431 cells 10,000 cells per well, 48 hours
  Yap1 mRNA, % UTC: 45 % UTC
[6]; Table 57, 4000.00 nM, A-431 cells 10,000 cells per well, 48 hours
  Yap1 mRNA, % UTC: 4 % UTC
[6]; Table 57, A-431 cells 10,000 cells per well
  IC50: 0.1 µM
[6]; Table 58, 15.6 nM, A-431 cells 10,000 cells per well, 48 hours
  Yap1 mRNA, % UTC: 84 % UTC
[6]; Table 58, 62.5 nM, A-431 cells 10,000 cells per well, 48 hours
  Yap1 mRNA, % UTC: 44 % UTC
[6]; Table 58, 4000.00 nM, A-431 cells 10,000 cells per well, 48 hours
  Yap1 mRNA, % UTC: 5 % UTC
[6]; Table 58, A-431 cells 10,000 cells per well
  IC50: 0.1 µM
[6]; Table 59, 15.6 nM, A-431 cells 10,000 cells per well, 48 hours
  Yap1 mRNA, % UTC: 83 % UTC
[6]; Table 59, 62.5 nM, A-431 cells 10,000 cells per well, 48 hours
  Yap1 mRNA, % UTC: 44 % UTC
[6]; Table 59, 4000.00 nM, A-431 cells 10,000 cells per well, 48 hours
  Yap1 mRNA, % UTC: 4 % UTC
[6]; Table 59, A-431 cells 10,000 cells per well
  IC50: 0.1 µM
[6]; Table 60, 15.6 nM, A-431 cells 10,000 cells per well, 48 hours
  Yap1 mRNA, % UTC: 79 % UTC
[6]; Table 60, 62.5 nM, A-431 cells 10,000 cells per well, 48 hours
  Yap1 mRNA, % UTC: 40 % UTC
[6]; Table 60, 4000.00 nM, A-431 cells 10,000 cells per well, 48 hours
  Yap1 mRNA, % UTC: 3 % UTC
[6]; Table 60, A-431 cells 10,000 cells per well
  IC50: 0.1 µM
[6]; Table 61, 15.6 nM, A-431 cells 10,000 cells per well, 48 hours
  Yap1 mRNA, % UTC: 80 % UTC
[6]; Table 61, 62.5 nM, A-431 cells 10,000 cells per well, 48 hours
  Yap1 mRNA, % UTC: 38 % UTC
[6]; Table 61, 4000.00 nM, A-431 cells 10,000 cells per well, 48 hours
  Yap1 mRNA, % UTC: 4 % UTC
[6]; Table 61, A-431 cells 10,000 cells per well
  IC50: 0.1 µM
[7]
  Kidney weight: 0.64 g
  Liver weight: 2.26 g
  Spleen weight: 0.21 g
  body weight: 40 g
[8]
  Kidney weight: 0.43 g
  Liver weight: 1.56 g
  Spleen weight: 0.12 g
  body weight: 25 g

— patent US11214803B2, “Modulators of YAP1 expression” (Ionis Pharmaceuticals, Inc., priority 2019, dated 2022)
